The record followed here is ChEMBL document CHEMBL3813616, “Discovery of novel 7-azaindoles as PDK1 inhibitors” (Bioorg Med Chem Lett, 2016).

Series [1] addresses Insulin-like growth factor 1 receptor (Homo sapiens) (UniProt P08069). The series can be described thus: Inhibition of human IGF1R (954 to 1367 residues) assessed as enzyme activity at 1 uM using 33P ATP by radioactive filter binding assay. More on the design: scale not given: the % may be the effect or the level left.
For series [2], the target named is Mitogen-activated protein kinase 1 (Homo sapiens) (UniProt P28482). The series can be described thus: Inhibition of human MAPK2 (2 to 360 residues) assessed as enzyme activity at 1 uM using 33P ATP by radioactive filter binding assay. More on the design: scale not given: the % may be the effect or the level left.
Mitogen-activated protein kinase 1 (Homo sapiens), sequence (P28482 whole entry, the tested form may be a part): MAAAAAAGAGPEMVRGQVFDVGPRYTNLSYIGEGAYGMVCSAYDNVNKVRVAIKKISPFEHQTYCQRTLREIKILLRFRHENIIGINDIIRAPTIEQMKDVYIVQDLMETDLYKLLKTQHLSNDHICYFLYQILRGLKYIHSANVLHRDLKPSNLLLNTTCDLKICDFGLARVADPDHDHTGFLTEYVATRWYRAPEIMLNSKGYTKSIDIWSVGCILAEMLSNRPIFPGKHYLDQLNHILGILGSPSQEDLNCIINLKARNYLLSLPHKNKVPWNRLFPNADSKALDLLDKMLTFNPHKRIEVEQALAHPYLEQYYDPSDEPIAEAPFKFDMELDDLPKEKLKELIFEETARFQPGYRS
Series [3] addresses Serine/threonine-protein kinase PAK 4 (Homo sapiens) (UniProt O96013). The experiment in a line: Inhibition of human PAK4 (2 to 591 residues) assessed as enzyme activity at 1 uM using 33P ATP by radioactive filter binding assay. More on the design: scale not given: the % may be the effect or the level left.
Series [4] deals with SRSF protein kinase 1 (Homo sapiens) (UniProt Q96SB4). The series can be described thus: Inhibition of human SRPK1 (2 to 654 residues) assessed as enzyme activity at 1 uM using 33P ATP by radioactive filter binding assay. More on the design: scale not given: the % may be the effect or the level left.
SRSF protein kinase 1 (Homo sapiens), sequence (Q96SB4 whole entry, the tested form may be a part): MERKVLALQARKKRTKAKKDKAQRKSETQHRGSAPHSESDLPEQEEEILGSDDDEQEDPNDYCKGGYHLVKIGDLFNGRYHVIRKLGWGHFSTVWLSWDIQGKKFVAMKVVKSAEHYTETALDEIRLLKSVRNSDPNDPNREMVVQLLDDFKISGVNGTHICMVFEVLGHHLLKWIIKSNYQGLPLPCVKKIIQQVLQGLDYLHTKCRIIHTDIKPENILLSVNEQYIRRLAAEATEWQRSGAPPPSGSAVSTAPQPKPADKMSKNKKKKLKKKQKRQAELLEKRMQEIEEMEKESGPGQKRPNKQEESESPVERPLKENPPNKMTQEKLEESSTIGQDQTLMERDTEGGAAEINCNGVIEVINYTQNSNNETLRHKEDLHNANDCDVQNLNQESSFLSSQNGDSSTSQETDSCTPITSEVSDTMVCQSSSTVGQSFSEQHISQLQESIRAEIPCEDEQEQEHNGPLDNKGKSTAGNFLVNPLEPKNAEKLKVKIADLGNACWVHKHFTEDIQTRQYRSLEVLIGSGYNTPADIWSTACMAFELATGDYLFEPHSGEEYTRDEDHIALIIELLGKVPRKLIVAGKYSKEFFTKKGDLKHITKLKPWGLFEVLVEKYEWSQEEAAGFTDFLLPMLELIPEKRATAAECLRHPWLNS
The nature of series [5]: Intrinsic clearance in human liver microsomes. In kind it is ADME. As to conditions: read-out: CLH. For orientation: Liver microsomes are vesicles of endoplasmic reticulum, rich in cytochrome P450 enzymes.
Series [6] can be described thus: Intrinsic clearance in mouse liver microsomes. In kind it is ADME. As to conditions: read-out: CLH.
The nature of series [7]: Permeability across apical to basolateral side in human Caco2 cells. In kind it is ADME, cell-based. As to conditions: Caco-2.
Series [8] concerns the target Phosphatidylinositol 4,5-bisphosphate 3-kinase catalytic subunit beta isoform (Homo sapiens, UniProt P42338). The series can be described thus: Inhibition of PI3K beta (unknown origin).
In series [9] the target is T1, Phosphatidylinositol 4,5-bisphosphate 3-kinase catalytic subunit delta isoform (Homo sapiens, UniProt O00329).
T1 sequence (O00329 whole entry): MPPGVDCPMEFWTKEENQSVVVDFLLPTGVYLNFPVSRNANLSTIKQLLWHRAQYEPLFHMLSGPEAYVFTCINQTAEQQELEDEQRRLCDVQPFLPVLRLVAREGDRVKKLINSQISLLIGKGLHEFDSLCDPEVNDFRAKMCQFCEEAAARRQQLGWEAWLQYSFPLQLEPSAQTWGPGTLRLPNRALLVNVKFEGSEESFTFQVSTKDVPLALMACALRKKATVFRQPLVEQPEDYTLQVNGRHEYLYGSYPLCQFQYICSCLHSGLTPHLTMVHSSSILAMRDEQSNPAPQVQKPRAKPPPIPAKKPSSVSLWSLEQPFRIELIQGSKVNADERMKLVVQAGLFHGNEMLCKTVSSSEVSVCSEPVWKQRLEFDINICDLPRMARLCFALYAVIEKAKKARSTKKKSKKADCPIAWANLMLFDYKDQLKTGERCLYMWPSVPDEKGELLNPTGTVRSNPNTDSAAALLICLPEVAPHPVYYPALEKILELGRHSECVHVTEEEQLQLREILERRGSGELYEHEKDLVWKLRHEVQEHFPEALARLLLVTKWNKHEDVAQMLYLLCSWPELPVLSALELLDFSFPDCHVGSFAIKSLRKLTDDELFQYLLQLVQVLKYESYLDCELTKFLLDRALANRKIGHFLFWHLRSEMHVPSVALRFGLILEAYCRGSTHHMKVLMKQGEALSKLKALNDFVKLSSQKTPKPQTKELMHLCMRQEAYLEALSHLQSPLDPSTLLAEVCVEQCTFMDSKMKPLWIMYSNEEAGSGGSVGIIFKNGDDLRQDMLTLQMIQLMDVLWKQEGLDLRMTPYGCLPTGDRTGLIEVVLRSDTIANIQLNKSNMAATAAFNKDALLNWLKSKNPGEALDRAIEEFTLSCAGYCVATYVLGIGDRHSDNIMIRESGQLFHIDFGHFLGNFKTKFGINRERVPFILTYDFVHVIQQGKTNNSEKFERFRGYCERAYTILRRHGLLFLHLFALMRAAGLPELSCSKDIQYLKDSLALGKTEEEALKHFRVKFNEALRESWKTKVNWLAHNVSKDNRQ
The series can be described thus: Inhibition of PI3K delta (unknown origin).

Series [10] has as its target T2, Ephrin type-B receptor 3 (Homo sapiens) (UniProt P54753).
T2 sequence (whole entry): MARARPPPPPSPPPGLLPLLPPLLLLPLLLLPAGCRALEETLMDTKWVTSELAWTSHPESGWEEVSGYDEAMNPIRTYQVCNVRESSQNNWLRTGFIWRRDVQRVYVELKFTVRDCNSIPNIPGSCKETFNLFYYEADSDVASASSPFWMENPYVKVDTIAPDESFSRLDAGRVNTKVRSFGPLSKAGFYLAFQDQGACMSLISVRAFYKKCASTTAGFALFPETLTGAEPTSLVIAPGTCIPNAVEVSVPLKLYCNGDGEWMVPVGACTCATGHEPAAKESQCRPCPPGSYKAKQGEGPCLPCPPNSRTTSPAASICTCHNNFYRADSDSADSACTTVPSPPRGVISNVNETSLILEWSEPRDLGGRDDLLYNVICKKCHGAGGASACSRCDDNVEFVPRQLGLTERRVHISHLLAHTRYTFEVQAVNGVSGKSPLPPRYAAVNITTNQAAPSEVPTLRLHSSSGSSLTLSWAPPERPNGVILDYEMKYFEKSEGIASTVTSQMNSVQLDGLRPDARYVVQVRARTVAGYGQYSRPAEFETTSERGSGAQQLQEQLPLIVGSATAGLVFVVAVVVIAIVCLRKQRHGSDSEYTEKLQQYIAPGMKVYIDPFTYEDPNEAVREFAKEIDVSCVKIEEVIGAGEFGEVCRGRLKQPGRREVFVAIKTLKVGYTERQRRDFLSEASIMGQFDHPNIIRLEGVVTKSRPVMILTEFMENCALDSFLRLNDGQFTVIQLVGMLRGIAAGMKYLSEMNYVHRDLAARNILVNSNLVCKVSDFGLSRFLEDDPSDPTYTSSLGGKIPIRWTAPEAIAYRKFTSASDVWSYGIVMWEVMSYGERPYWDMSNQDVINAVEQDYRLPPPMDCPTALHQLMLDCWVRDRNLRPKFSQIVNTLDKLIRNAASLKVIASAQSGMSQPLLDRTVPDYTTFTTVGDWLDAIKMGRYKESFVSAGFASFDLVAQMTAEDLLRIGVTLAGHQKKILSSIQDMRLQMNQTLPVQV
The experiment in a line: Inhibition of human EPHB3 (561 to 998 residues) assessed as enzyme activity at 1 uM using 33P ATP by radioactive filter binding assay. More on the design: scale not given: the % may be the effect or the level left.

The target in series [11] is Homeodomain-interacting protein kinase 2 (Homo sapiens) (UniProt Q9H2X6). The series can be described thus: Inhibition of human HIPK2 (165 to 564 residues) assessed as enzyme activity at 1 uM using 33P ATP by radioactive filter binding assay. More on the design: scale not given: the % may be the effect or the level left.
Homeodomain-interacting protein kinase 2 (Homo sapiens), sequence (Q9H2X6 whole entry, looked up, the tested form may be a part): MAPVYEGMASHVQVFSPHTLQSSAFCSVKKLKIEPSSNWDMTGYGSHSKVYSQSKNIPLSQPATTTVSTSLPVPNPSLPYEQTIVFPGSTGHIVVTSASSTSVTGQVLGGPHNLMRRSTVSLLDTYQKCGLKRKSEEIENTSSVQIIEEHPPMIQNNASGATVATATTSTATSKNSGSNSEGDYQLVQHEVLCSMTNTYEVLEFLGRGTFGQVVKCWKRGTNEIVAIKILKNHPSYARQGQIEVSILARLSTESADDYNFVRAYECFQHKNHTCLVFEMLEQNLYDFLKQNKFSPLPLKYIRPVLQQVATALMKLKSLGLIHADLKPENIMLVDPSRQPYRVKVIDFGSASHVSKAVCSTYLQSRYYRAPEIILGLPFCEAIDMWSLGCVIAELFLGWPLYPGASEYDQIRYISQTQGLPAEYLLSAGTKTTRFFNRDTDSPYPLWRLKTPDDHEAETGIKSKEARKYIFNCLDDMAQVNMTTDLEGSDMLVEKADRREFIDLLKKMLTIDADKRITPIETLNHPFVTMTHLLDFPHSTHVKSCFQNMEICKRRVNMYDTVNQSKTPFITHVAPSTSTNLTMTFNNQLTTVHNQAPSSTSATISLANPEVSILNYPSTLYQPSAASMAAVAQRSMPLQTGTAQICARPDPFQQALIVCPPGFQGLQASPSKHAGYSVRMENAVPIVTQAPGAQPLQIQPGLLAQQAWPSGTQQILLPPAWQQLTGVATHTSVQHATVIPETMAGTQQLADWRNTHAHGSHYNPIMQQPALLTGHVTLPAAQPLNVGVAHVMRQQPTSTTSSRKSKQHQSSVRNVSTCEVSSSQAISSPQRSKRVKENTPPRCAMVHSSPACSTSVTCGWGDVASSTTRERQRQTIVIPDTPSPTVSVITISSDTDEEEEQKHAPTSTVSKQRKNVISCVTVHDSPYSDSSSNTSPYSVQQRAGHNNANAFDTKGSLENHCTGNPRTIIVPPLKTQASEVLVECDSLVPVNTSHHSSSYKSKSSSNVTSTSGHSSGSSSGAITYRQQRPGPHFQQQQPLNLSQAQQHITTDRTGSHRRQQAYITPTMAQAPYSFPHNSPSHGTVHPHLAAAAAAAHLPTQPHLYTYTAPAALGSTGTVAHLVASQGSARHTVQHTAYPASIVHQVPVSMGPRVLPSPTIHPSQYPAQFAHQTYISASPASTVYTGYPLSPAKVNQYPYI
For series [12], the target named is Mitogen-activated protein kinase 10 (Homo sapiens) (UniProt P53779). The experiment in a line: Inhibition of human JNK3alpha1 assessed as enzyme activity at 1 uM using 33P ATP by radioactive filter binding assay. More on the design: scale not given: the % may be the effect or the level left.
Series [13] has as its target MAP kinase-activated protein kinase 3 (Homo sapiens) (UniProt Q16644). The series can be described thus: Inhibition of human MAPKAPK3 (2 to 382 residues) assessed as enzyme activity at 1 uM using 33P ATP by radioactive filter binding assay. More on the design: scale not given: the % may be the effect or the level left.
Series [14] addresses Aurora kinase C (Homo sapiens) (UniProt Q9UQB9). The series can be described thus: Inhibition of AURKC (unknown origin) assessed as enzyme activity at 1 uM using 33P ATP by radioactive filter binding assay. More on the design: scale not given: the % may be the effect or the level left.

Where only a bound is given, the exact number is not on record here.

Insulin-like growth factor 1 receptor (Homo sapiens), sequence (P08069 31-736 limits assumed): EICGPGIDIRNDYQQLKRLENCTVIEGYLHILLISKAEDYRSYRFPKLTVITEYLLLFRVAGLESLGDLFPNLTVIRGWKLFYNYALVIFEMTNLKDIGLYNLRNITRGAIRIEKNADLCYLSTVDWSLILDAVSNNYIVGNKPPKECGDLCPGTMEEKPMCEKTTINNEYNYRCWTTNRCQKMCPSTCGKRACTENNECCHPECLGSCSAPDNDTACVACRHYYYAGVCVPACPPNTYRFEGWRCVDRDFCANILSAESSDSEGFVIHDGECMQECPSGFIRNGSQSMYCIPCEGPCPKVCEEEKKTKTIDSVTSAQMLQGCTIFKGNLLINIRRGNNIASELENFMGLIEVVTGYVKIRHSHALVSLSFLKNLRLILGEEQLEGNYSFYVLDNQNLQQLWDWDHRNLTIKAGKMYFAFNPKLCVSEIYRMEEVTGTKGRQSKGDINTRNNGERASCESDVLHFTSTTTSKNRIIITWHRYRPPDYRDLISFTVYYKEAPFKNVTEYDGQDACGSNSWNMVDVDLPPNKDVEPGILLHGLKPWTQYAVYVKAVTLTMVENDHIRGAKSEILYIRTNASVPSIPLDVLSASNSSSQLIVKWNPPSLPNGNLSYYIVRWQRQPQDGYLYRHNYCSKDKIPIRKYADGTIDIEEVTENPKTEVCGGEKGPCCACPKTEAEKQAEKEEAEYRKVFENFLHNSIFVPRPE
Insulin-like growth factor 1 receptor (Homo sapiens), sequence (P08069 741-1367 limits assumed): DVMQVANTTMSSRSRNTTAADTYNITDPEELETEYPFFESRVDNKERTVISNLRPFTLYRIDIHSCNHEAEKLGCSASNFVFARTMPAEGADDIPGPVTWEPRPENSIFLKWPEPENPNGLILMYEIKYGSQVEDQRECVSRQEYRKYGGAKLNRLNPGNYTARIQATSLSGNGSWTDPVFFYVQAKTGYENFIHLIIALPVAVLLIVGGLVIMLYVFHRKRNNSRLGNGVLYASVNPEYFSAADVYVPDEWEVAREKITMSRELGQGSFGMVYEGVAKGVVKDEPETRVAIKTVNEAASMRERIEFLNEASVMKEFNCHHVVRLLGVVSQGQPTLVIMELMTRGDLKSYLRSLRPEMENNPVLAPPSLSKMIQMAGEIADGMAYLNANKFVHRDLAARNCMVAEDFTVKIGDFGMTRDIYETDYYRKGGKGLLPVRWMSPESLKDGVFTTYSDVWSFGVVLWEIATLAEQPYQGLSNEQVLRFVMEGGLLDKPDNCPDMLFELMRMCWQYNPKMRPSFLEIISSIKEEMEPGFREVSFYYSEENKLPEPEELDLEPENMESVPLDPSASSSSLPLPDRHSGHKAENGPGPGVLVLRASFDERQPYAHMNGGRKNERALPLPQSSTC
Serine/threonine-protein kinase PAK 4 (Homo sapiens), sequence (O96013 whole entry, looked up, the tested form may be a part): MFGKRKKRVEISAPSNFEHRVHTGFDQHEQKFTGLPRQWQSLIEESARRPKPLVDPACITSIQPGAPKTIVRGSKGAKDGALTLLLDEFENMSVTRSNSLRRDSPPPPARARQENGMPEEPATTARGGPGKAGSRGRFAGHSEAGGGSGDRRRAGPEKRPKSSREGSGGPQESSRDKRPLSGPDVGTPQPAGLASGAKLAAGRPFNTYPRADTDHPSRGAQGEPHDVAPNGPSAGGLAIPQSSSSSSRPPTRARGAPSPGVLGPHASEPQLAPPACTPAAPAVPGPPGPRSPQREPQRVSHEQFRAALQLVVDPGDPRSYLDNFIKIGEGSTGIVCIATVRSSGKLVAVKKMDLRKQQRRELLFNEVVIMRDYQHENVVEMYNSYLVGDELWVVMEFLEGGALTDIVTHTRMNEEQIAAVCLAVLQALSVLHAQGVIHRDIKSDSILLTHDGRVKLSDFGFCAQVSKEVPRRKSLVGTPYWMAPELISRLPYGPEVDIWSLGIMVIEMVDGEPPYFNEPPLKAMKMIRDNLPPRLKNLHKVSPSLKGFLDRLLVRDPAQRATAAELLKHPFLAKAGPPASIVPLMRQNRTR
Aurora kinase C (Homo sapiens), sequence (Q9UQB9 whole entry): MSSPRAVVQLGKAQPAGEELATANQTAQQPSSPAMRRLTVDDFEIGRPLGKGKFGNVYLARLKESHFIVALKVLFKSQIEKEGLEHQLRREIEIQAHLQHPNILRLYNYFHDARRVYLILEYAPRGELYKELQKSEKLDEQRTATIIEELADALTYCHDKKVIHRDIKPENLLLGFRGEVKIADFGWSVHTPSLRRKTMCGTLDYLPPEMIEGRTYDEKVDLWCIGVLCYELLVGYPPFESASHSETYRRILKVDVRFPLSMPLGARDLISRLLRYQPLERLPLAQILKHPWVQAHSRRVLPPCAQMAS
MAP kinase-activated protein kinase 3 (Homo sapiens), sequence (Q16644 whole entry, looked up, the tested form may be a part): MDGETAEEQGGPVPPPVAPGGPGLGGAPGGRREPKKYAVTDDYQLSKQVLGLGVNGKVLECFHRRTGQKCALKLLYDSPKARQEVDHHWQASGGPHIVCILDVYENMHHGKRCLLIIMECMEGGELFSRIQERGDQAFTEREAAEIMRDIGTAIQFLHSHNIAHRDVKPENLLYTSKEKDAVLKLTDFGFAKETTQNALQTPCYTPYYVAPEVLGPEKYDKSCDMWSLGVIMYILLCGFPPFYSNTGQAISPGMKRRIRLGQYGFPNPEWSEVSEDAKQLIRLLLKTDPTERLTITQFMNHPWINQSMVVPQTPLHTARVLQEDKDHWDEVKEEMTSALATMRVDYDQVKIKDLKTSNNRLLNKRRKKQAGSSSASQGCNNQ

In general, Papp A→B refers to how fast a substance crosses the layer from the apical side. As a reminder, the IC50 is the point on the concentration scale where inhibition reaches its midpoint. In the case of `CCCCc1cc(-c2c[nH]c3ncc(-c4cnn(C5CCNCC5)c4)cc23)nc(N)n1`, the Activity is -27% in series [1]; -30% in series [2]; -60% in series [3]; -14% in series [4]; -25% in [10]; -92% in series [11]. The microsomal CLint in [5] and in [6] was less than 10 µL/min/mg throughout. The same compound showed a Papp A→B in series [7] of 0.3 ×10⁻⁶ cm/s. Besides, the IC50 is more than 30 µM in [8] and 4 µM in series [9].

As to `Nc1nccc(-c2c[nH]c3ncccc23)n1` [MERIOLIN 1], the Activity in series [1] is -2%; in series [12], -11%; in series [2], -21%; in series [13], -8%; in series [3], -22%; in [4], -9%. Also, the Activity in series [14] is -3%; in series [10], 28%; in series [11], -79%. This compound had an IC50 in series [9] of more than 10 µM.

As for `CCCCc1cc(-c2c[nH]c3ncccc23)nc(N)n1`, the Activity is 1% in series [12]; -9% in series [2]; 17% in series [13]; 1% in series [3]; -12% in series [4]; -15% in [14]. The Activity in series [11] was -67%. Further, the IC50 in series [8] and in series [9] was more than 10 µM each time.

In the case of `CCc1cc(-c2c[nH]c3ncc(-c4cnn(C5CCNCC5)c4)cc23)nc(N)n1`, the Activity was -34% in series [1]; -32% in [2]; -47% in series [3]; 3% in series [4]; -19% in [10]; -99% in [11]. Moreover, the microsomal CLint in series [5] and in series [6] was less than 10 µL/min/mg throughout. This compound gave a Papp A→B in series [7] of 1.3 ×10⁻⁶ cm/s.
